We go through 4 compounds from patent US8349886B2, “Nitrogenated 5-membered heterocyclic compound” (Takeda Pharmaceutical Company Limited, priority 2008, dated 2013).

The target in the assay is T1, GST-hLGK1 (human liver type GK) (Homo sapiens, UniProt P35557).
T1 construct: made in house; host or cells: Escherichia coli BL21 (Stratagene), plasmid pGEX6P-2/hLGK1
T1 sequence (P35557 1-464 isoform P35557-3): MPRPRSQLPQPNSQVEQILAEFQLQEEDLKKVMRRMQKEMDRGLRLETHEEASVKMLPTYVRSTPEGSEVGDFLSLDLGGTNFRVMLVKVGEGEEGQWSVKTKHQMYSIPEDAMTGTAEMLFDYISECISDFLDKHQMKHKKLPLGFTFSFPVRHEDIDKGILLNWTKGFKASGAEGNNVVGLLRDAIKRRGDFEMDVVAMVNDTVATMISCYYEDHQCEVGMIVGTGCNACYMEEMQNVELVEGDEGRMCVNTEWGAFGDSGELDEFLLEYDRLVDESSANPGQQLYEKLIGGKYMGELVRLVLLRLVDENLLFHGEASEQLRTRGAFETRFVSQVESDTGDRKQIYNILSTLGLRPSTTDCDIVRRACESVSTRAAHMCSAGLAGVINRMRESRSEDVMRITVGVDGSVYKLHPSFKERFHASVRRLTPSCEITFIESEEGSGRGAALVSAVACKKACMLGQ
In words: Measurement of GK activation value (Mant-ATP/Mant-ADP capillary electrophoresis). Type of assay: biochemical. To be noted: test compound 10 μmol/L; 5 mmol/L D-glucose; reaction rate as percentage of control group without test compound. The procedure: A plasmid DNA used for expression of a protein (GST-hLGK1) having GST (Glutathione S-transferase) added to the amino terminal of human liver type GK in Escherichia coli was prepared as follows.
BL21 strain (Stratagene) transformed with pGEX6P-2/hLGK1 obtained in Reference Example 1A was cultured with shaking in a 200 ml Erlenmeyer flask containing LB medium (50 ml) containing 100 μg/ml ampicillin at 37° C. for 14 hr. The cultured broth (25 ml) was diluted with LB medium (225 ml) containing 100 μg/ml ampicillin, and cultured with shaking in a 1 L Erlenmeyer flask at 37° C. for 1 hr. The Erlenmeyer flask after culture was cooled on ice, 100 mM Isopropyl-Thio-β-D-Galactopyranoside (IPTG) (125 μL) was added (final concentration 50 μM), and the cells were cultured at 17° C. for 20 hr. The cultures broth was centrifuged, and the obtained cells were disrupted by ultrasonication, and the object protein (GST-hLGK1) was purified from the supernatant using Glutathione Sepharose 4B (Amersham Biosciences).
GK enzyme reactions were performed in 50 mmol/L HEPES pH7.4, 200 mmol/L KCl, 5 mmol/L MgCl2, 2 mmol/L DTT, containing 50 μmol/L 2′-(or-3′)-O—(N-methylanthraniloyl)adenosine 5′-triphosphate (Mant-ATP) (Jena Bioscience GmbH), 5 mmol/L D-glucose, 5% DMSO and 6 μg/mL GST-hLGK1 obtained in Reference Example 2A in a total volume 50 μL. The reactions were performed in 384 well black plates (Nalge Nunc International K.K.). Prior to the reaction, the enzyme and test compound were incubated for 10 min at 37° C., and 25 mM D-glucose solution (10 μL) was added to start the reaction. The final concentration of the test compound is 10 μmol/L. After the incubation for 60 min at 37° C., the reaction was quenched by adding 25 μL of a quenching solution (containing 200 mM HEPES (pH 7.4), 20 mM MgCl2, 200 mM EDTA, 0.03% Triton-X 100, 0.3% Coating 3 reagent (Caliper Life Sciences, Inc.)).
Mant-ATP (substrate, 2′-(or-3′)-O—(N-methylanthraniloyl)adenosine 5′-triphosphate) and Mant-ADP (reaction resultant product) were separated from each well after the reaction by a microchip type capillary electrophoresis apparatus 250 HTS (Caliper Life Sciences, Inc.). The reaction rate [(reaction resultant product peak height)/(reaction resultant product peak height+substrate peak height)×100(%)] was calculated from the ratio of the substrate peak height and reaction resultant product peak height obtained by fluorescence detection (excitation wavelength 355 nm, measurement wavelength 460 nm) and used as the index of GK activity.
As a control group, the reaction rate was calculated in the same manner as above without the test compounds. […]

Consider `COc1ccc2c(cnn2C(CC2CCOCC2)c2ccc(-c3ccc(C(O)C(C)(C)O)cn3)[nH]2)c1S(=O)(=O)C1CC1` (stereo not shown) [Example 5, 1-[6-(5-{1-[4-(cyclopropylsulfonyl)-5-methoxy-1H-indazol-1-yl]-2-(tetrahydro-2H-pyran-4-yl)ethyl}-1H-pyrrol-2-yl)pyridin-3-yl]-2-methylpropane-1,2-diol], for which the Emax at 10 µM was 162%. `COc1ccnc2c1cnn2C(CC1CCOCC1)c1ccc(-c2ccc(C(O)C(C)(C)O)cn2)[nH]1` (stereo not shown) [Example 3, 1-(6-{5-[1-(4-methoxy-1H-pyrazolo[3,4-b]pyridin-1-yl)-2-(tetrahydro-2H-pyran-4-yl)ethyl]-1H-pyrrol-2-yl}pyridin-3-yl)-2-methylpropane-1,2-diol] had an Emax at 10 µM of 124%. As for `Cn1nc(C(CC2CCOCC2)c2ccc(-c3ncc(CO)s3)[nH]2)cc1S(C)(=O)=O` (stereo not shown) [Example 2, [2-(5-{1-[1-methyl-5-(methylsulfonyl)-1H-pyrazol-3-yl]-2-(tetrahydro-2H-pyran-4-yl)ethyl}-1H-pyrrol-2-yl)-1,3-thiazol-5-yl]methanol], the figure is 138%. The compound `CC(C)(O)C(O)c1ccc(-c2ccc(C(CC3CCOCC3)n3ncc4c(S(=O)(=O)C5CC5)cccc43)[nH]2)nc1` (stereo not shown) [Example 4, 1-[6-(5-{1-[4-(cyclopropylsulfonyl)-1H-indazol-1-yl]-2-(tetrahydro-2H-pyran-4-yl)ethyl}-1H-pyrrol-2-yl)pyridin-3-yl]-2-methylpropane-1,2-diol] returned a maximum response (Emax) at 10 µM of 161%.
